Experimental data as given in patent publication US12172993B2 (priority 2018, dated 2024).

Tests used:
in vivo = conditions: male, CD1, mouse
hERG potassium channel = hERG potassium channel (Homo sapiens (Human), UniProt Q12809); conditions: 3 uM; from NDA 21-986 review; cited from earlier work
PDGFR-beta = PDGFR-beta (Homo sapiens (Human), UniProt P09619); test: biochemical; conditions: read-out: Residual activity (%) at 1 μM
RET [1] = target: T1, RET (Homo sapiens (Human), UniProt P07949)
MST4 = MST4 (Homo sapiens (Human), UniProt Q9P289); test: biochemical; conditions: read-out: Residual activity (%) at 1 μM
MDR1 = test: in vitro; conditions: dog, MDCK-MDR1
RET [2] = target: T1, RET; test: biochemical; conditions: read-out: Residual activity (%) at 1 μM, RET
BMPR1A = BMPR1A (Homo sapiens (Human), UniProt P36894); test: biochemical; conditions: read-out: Residual activity (%) at 1 μM
WEE1 = WEE1 (Homo sapiens (Human), UniProt P30291); test: biochemical; conditions: read-out: Residual activity (%) at 1 μM
in vitro = conditions: dog, MDCK
[3] = system: cell-panel representing haematological cancers; test: haematological cancer cell-panel growth inhibition (Oncolead); format: cell-based
MC38 cells [4] = test: cells; conditions: Mus musculus, MC-38, 72 h, read-out: MC38 IC50 (nM at 100 ng/mL TNF)
PANC-1 cells = test: real-time live cell microscopy of TNF-induced cell death (YOYO-1); format: cell-based; conditions: real-time live cell assay
[5] = maximal tolerable dose (MTD) study in female C57Bl/6 mice
human plasma-proteins = conditions: human plasma-protein binding
RAF1 = RAF1 (Homo sapiens (Human), UniProt P04049, Y340D/Y341D); format: biochemical; conditions: read-out: Residual activity (%) at 1 μM
[6] = human, microsomes, 40 min
murine plasma-proteins = conditions: murine plasma protein binding
NFKB activity = conditions: PANC-1 reporter cells; in words
MC38 cells [7] = system: MC38 cells
[8] = system: immune cells present in the tumour microenvironment
[9] = twice daily treatment, intra-tumoural

T1 sequence (P07949 29-1114 limits assumed): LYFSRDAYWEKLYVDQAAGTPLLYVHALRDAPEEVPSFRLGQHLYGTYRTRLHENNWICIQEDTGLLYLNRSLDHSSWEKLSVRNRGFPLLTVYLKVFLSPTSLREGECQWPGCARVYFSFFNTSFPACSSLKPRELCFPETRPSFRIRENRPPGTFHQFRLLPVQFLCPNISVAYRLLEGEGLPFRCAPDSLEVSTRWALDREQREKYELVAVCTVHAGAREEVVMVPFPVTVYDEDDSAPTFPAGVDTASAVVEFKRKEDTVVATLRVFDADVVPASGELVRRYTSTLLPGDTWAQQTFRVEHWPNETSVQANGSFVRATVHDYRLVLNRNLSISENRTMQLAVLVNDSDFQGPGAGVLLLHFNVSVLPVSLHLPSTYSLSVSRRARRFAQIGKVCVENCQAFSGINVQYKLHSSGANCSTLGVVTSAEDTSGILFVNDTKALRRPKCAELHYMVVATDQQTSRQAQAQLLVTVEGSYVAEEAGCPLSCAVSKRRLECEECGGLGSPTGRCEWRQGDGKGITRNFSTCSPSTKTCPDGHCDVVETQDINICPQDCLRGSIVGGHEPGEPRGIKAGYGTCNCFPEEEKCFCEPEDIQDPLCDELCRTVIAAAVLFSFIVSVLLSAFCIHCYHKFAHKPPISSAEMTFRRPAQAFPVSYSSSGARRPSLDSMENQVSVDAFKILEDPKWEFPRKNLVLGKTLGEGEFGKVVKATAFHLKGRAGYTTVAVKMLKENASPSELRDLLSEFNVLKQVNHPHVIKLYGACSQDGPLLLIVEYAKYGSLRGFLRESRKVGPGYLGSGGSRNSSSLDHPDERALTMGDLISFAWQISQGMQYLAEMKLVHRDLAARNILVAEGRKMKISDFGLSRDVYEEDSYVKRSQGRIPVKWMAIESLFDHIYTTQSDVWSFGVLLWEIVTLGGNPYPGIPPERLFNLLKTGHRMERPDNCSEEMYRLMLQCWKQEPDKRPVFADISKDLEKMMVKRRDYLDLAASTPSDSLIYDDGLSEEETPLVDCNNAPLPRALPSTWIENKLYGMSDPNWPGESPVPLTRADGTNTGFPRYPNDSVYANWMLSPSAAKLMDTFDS
RAF1, sequence (P04049 307-648 Y340D/Y341D limits assumed): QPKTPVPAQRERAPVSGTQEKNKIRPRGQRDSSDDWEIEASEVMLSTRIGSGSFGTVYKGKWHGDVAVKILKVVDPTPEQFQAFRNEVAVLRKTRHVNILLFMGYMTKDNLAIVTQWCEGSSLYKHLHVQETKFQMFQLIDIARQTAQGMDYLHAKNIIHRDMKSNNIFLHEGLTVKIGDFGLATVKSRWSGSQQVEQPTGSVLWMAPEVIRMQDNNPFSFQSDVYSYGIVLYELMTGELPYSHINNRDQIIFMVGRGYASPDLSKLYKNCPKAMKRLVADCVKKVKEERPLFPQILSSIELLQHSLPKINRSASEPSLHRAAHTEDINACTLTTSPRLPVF
PDGFR-beta, sequence (P09619 33-1106 limits assumed): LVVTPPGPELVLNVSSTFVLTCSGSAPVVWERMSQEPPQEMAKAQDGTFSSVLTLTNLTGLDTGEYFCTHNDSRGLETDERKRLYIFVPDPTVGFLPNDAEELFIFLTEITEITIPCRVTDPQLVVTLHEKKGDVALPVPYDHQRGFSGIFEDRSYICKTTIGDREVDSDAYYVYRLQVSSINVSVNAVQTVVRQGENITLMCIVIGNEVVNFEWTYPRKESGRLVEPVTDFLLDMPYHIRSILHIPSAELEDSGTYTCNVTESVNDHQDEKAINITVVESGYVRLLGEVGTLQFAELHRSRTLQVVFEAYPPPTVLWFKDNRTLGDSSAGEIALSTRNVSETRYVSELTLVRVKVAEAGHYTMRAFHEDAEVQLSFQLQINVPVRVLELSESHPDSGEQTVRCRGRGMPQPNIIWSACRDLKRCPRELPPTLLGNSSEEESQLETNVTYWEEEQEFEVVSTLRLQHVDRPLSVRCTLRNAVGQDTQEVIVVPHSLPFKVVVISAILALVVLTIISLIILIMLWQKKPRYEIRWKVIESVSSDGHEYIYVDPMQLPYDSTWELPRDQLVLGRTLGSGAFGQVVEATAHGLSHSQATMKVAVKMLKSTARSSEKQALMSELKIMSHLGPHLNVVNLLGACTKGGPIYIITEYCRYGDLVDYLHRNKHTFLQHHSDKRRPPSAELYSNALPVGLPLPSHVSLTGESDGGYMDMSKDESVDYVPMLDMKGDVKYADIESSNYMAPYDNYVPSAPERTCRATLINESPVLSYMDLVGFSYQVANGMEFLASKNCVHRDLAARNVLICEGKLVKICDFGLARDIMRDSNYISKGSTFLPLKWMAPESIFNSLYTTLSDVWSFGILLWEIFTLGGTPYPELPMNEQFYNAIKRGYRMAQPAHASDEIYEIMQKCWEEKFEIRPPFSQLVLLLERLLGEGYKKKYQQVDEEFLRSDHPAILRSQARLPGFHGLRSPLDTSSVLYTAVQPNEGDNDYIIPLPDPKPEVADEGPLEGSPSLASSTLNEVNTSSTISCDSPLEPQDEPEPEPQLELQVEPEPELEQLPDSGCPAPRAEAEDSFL
BMPR1A, sequence (P36894 24-532 limits assumed): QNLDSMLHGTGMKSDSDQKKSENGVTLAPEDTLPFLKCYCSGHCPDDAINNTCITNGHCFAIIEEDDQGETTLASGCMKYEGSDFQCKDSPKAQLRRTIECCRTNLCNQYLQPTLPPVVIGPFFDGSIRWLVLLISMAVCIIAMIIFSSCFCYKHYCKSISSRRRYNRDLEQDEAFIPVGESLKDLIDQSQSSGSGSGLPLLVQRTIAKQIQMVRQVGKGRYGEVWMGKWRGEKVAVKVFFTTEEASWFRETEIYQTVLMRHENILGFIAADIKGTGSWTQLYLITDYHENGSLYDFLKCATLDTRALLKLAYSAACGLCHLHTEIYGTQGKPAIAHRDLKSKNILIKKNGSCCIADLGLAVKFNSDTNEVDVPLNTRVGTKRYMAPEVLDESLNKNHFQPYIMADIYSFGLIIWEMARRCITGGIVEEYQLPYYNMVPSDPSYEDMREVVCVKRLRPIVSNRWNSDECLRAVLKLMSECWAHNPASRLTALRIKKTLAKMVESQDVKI

For Cc1nc(Nc2ncc(C(=O)Nc3c(C)cccc3Cl)s2)cc(N2CCN(CCO)CC2)n1 [Compound A8, N-(2-chloro-6-methylphenyl)-2-((6-(4-(2-hydroxyethyl)piperazin-1-yl)-2-methylpyrimidin-4-yl)amino)thiazole-5-carboxamide, reference compound], the Cmax (in vivo; plasma, iv, 1 mg/kg) was 1280 nM, the MRT inf (in vivo; plasma, iv, 1 mg/kg) was 1.6 h and the MRT last (in vivo; plasma, iv, 1 mg/kg) was 1.3 h. For the same compound, the Tmax (in vivo; plasma, iv, 1 mg/kg) was 0.08 h, the Vd (in vivo; plasma, iv, 1 mg/kg) was 3.1 L/kg and the clearance (in vivo; plasma, iv, 1 mg/kg) was 32 mL/min/kg. The Cmax (in vivo; plasma, po, 30 mg/kg) was 1130 nM, the Tmax (in vivo; plasma, po, 30 mg/kg) was 2 h and the bioavailability (in vivo; plasma, po, 30 mg/kg) was 21%. The “inhibition of hERG currents” value (hERG potassium channel) was “about 6%”, the remaining activity at 1 µM (PDGFR-beta) was 2% and the “Residual activity (%) at 1 μM” value (RET [1]) was 39%. The remaining activity at 1 µM (MST4) was 79%, the Papp (MDR1) was 105 ×10⁻⁶ cm/s and the remaining activity at 1 µM (RET [2]) was < 40%. For the same compound, the remaining activity at 1 µM (BMPR1A) was 42%, the remaining activity at 1 µM (WEE1) was 61% and the Papp (in vitro) was 49 ×10⁻⁶ cm/s.
In the case of Cc1nc(Nc2ncc(C(=O)Nc3c(C)csc3Cl)s2)cc(N2CCN(CCO)CC2)n1 [Compound C7, N-(2-chloro-4-methylthiophen-3-yl)-2-((6-(4-(2-hydroxyethyl)piperazin-1-yl)-2-methylpyrimidin-4-yl)amino)thiazole-5-carboxamide], the GI50 activity ([3]; on about 5 cell lines of the panel) is reported as “sub-nanomolar”, the GI50 ([3]; read-out: GI50 activity) is reported as < 10 nM and the MRT inf (in vivo; in vivo, iv, 1 mg/kg) is reported as 1 h. For the same compound, the MRT last (in vivo; in vivo, iv, 1 mg/kg) was 0.7 h, the IC50 (MC38 cells [4]) was < 100 nM and the “sensitisation to the effect of rHuTNF” value (PANC-1 cells) was “sensitise PANC-1 cells to the effect of rHuTNF”. The signs of intolerance ([5]; 33 and 100 mg/kg QD or BID, 7 consecutive days) was “did not show any signs of intolerance”, the body weight ([5]; all dosing groups vs non-treated control animals) was “minor reduction in body weight” and the tolerable dose ([5]; gavage, female C57BL/6 animals, seven days) was “up to 100 mg/kg BID”. The “Percentage unbound (%)” value (human plasma-proteins) was <1%, the remaining activity at 1 µM (RAF1) was 4 to 5% and the “% Remaining at 40 min (%)” value [6] was 1%. For the same compound, the “Percentage unbound (%)” value (murine plasma-proteins) was 5%, the “TNF-induced activity of NFkB” value (NFKB activity) was “inhibit TNF-induced activity of NFkB in a dose-dependent manner” and the “phosphorylation of HDAC4” value (HDAC4 phosphorylation) was “inhibit the phosphorylation of HDAC4”. For the same compound, the “sensitisation to the cytotoxic effect of TNF” value (MC38 cells [7]) was “sensitised to the cytotoxic effect of TNF”, the “immunosuppressive M2 macrophages (CD206+MHC-II+)” value ([8]; mouse, in vivo) was “significantly reduced” and the “activation of cytotoxic T lymphocytes, CD25+CD69+” value [8, 9] was “increased activation”. The “activation of cytotoxic T lymphocytes, granzyme B expression” value [8, 9] was “increased activation”.
